Biological target: cGMP-specific 3',5'-cyclic phosphodiesterase (Homo sapiens, UniProt O76074)
Assay: Inhibition of PDE5

Q: Which IC50 does the source give for `CCCCN1C(=O)[C@H]2Cc3c([nH]c4ccccc34)[C@H](c3ccccc3)N2C1=O` (relative stereo) here?
A: The IC50 was 20 nM.

Q: Which IC50 does the source give for `CCCc1n[nH]c2c(=O)[nH]c(-c3ccccc3)nc12` here?
A: Its IC50 is 81.3 nM.

Q: With `CCCCN1C(=O)[C@H]2Cc3c([nH]c4ccccc34)[C@@H](c3ccoc3)N2C1=O` (relative stereo) as the compound, how does the IC50 read?
A: Its IC50 is 100 nM.

Q: For `CCOc1ccc([C@H]2c3[nH]c4ccccc4c3C[C@@H]3C(=O)N(CC)C(=O)N23)cc1` (relative stereo), which IC50 is on record?
A: Its IC50 is 7.08 nM.

Q: For `CCOc1ccc([C@H]2c3[nH]c4ccccc4c3C[C@@H]3C(=O)NC(=O)N23)cc1` (relative stereo), which IC50 is on record?
A: Its IC50 is 20 nM.

Q: With `CCCCN1C(=O)[C@H]2Cc3c([nH]c4ccccc34)[C@@H](c3ccccc3)N2C1=O` (relative stereo) as the compound, how does the IC50 read?
A: The IC50 was 60.3 nM.

Q: Which IC50 does the source give for `CCOc1ccc([C@H]2c3[nH]c4ccccc4c3C[C@@H]3C(=O)N(Cc4cccnc4)C(=O)N23)cc1` (relative stereo) here?
A: Its IC50 is 20 nM.

Q: Which IC50 does the source give for `CCOc1ccc([C@H]2c3[nH]c4ccccc4c3C[C@@H]3C(=O)N(Cc4ccccc4)C(=O)N23)cc1` (relative stereo) here?
A: Its IC50 is 18.2 nM.

Q: Which IC50 does the source give for `CCOc1ccc([C@H]2c3[nH]c4ccccc4c3C[C@@H]3C(=O)N(C4CCCCC4)C(=O)N23)cc1` (relative stereo) here?
A: The IC50 was 3.02 nM.

Q: With `CCCCN1C(=O)[C@H]2Cc3c([nH]c4ccccc34)[C@@H](c3cccc(Cl)c3)N2C1=O` (relative stereo) as the compound, how does the IC50 read?
A: Its IC50 is 50.1 nM.

Q: With `CCCc1nn(C)c2c(=O)[nH]c(-c3cc(S(=O)(=O)N4CCC(C(N)=O)CC4)ccc3OCC)nc12` as the compound, how does the IC50 read?
A: Its IC50 is 2.09 nM.

Q: For `CCCCN1C(=O)[C@H]2Cc3c([nH]c4ccccc34)[C@@H](c3ccncc3)N2C1=O` (relative stereo), which IC50 is on record?
A: Its IC50 is 302 nM.

Q: For `CCOc1ccc([C@H]2c3[nH]c4ccccc4c3C[C@@H]3C(=O)N(CCN(C)C)C(=O)N23)cc1` (relative stereo), which IC50 is on record?
A: Its IC50 is 30.2 nM.

Q: Which IC50 does the source give for `CCCCN1C(=O)[C@H]2Cc3c(n(C)c4ccccc34)[C@H](c3ccc(OC)cc3)N2C1=O` (relative stereo) here?
A: Its IC50 is 2000 nM.

Q: Which IC50 does the source give for `CCCc1nn(C)c2c(=O)[nH]c(-c3ccccc3)nc12` here?
A: The IC50 was 4470 nM.

Q: Which IC50 does the source give for `CCCCN1C(=O)[C@H]2Cc3c([nH]c4ccccc34)[C@@H](c3ccc(Cl)cc3)N2C1=O` (relative stereo) here?
A: The IC50 was 50.1 nM.

Q: With `CCOc1ccc([C@H]2c3[nH]c4ccccc4c3C[C@@H]3C(=O)N(CCc4ccccn4)C(=O)N23)cc1` (relative stereo) as the compound, how does the IC50 read?
A: The IC50 was 6.03 nM.

Q: With `CCOc1ccc([C@@H]2c3[nH]c4ccccc4c3C[C@@H]3C(=O)N(C)C(=O)N23)cc1` (relative stereo) as the compound, how does the IC50 read?
A: Its IC50 is 10 nM.

Q: Which IC50 does the source give for `CCOc1ccc([C@@H]2c3[nH]c4ccccc4c3C[C@@H]3C(=O)N(CC)C(=O)N23)cc1` (relative stereo) here?
A: Its IC50 is 10 nM.

Q: With `CCCCN1C(=O)[C@H]2Cc3c([nH]c4ccccc34)[C@H](c3ccc(Cl)cc3)N2C1=O` (relative stereo) as the compound, how does the IC50 read?
A: The IC50 was 20 nM.

Q: For `CCCCN1C(=O)[C@H]2Cc3c([nH]c4ccccc34)[C@H](c3cccc(Cl)c3)N2C1=O` (relative stereo), which IC50 is on record?
A: Its IC50 is 50.1 nM.

Q: For `CCCCN1C(=O)[C@H]2Cc3c([nH]c4ccccc34)[C@@H](c3ccsc3)N2C1=O` (relative stereo), which IC50 is on record?
A: Its IC50 is 30.2 nM.

Q: Which IC50 does the source give for `CCCCN1C(=O)[C@H]2Cc3c([nH]c4ccccc34)[C@@H](c3cccnc3)N2C1=O` (relative stereo) here?
A: Its IC50 is 91.2 nM.

Q: For `CCCCN1C(=O)[C@H]2Cc3c([nH]c4ccccc34)[C@H](c3ccccc3OC)N2C1=O` (relative stereo), which IC50 is on record?
A: The IC50 was 1000 nM.

Q: Which IC50 does the source give for `CCCc1nn(C)c2c(=O)[nH]c(-c3ccccc3O)nc12` here?
A: Its IC50 is 1000 nM.

Q: For `CCCCN1C(=O)[C@H]2Cc3c([nH]c4ccccc34)[C@@H](c3ccc(C#N)cc3)N2C1=O` (relative stereo), which IC50 is on record?
A: The IC50 was 912 nM.

Q: For `CCCCN1C(=O)[C@H]2Cc3c([nH]c4ccccc34)[C@H](c3ccc(C#N)cc3)N2C1=O` (relative stereo), which IC50 is on record?
A: The IC50 was 302 nM.

Q: Which IC50 does the source give for `CCOc1ccc([C@@H]2c3[nH]c4ccccc4c3C[C@@H]3C(=O)N(C4CCCCC4)C(=O)N23)cc1` here?
A: Its IC50 is 7.08 nM.

Q: With `CCCc1nn(C)c2c(=O)[nH]c(-c3cc(S(=O)(=O)N4CCN(CCO)CC4)ccc3OCC)nc12` [LODENAFIL] as the compound, how does the IC50 read?
A: The IC50 was 1.91 nM.

Q: With `CCOc1ccc([C@H]2c3[nH]c4ccccc4c3C[C@@H]3C(=O)N(CCn4cccc4)C(=O)N23)cc1` (relative stereo) as the compound, how does the IC50 read?
A: Its IC50 is 100 nM.

Q: With `CCOc1ccc([C@@H]2c3[nH]c4ccccc4c3C[C@@H]3C(=O)N(Cc4ccccc4)C(=O)N23)cc1` (relative stereo) as the compound, how does the IC50 read?
A: Its IC50 is 3.98 nM.

Tested on: not listed separately
Assay: Octanol-water partition coefficient, log P of the compound
Type: physicochemical

Q: Which logP does the source give for `CCCCN1C(=O)[C@H]2CC=C(c3cc(S(=O)(=O)N4CCN(CC)CC4)ccc3OCC)CN2C1=O` here?
A: Its logP is 2.77.

Q: Which logP does the source give for `CCCCN1C(=O)c2nc(-c3cc(S(=O)(=O)N4CCN(C)CC4)ccc3OCC)[nH]c(=O)c2C1=O` here?
A: Its logP is 1.86.

Q: For `CCCc1nc(C)c2c(=O)[nH]c(-c3cc(S(=O)(=O)N4CCN(CC)CC4)ccc3OCC)nn12`, which logP is on record?
A: The logP was 2.56.

Q: Which logP does the source give for `CN1CC(=O)N2[C@H](c3ccc4c(c3)OCO4)c3[nH]c4ccccc4c3C[C@@H]2C1=O` here?
A: Its logP is 2.36.

Q: With `CCCCN1C(=O)[C@H]2C(=O)NC(c3cc(S(=O)(=O)N4CCN(CC)CC4)ccc3OCC)=NN2C1=O` as the compound, how does the logP read?
A: The logP was 0.574.

Q: Which logP does the source give for `CCOc1ccc(S(=O)(=O)N2CCN(CC)CC2)cc1C1=CC[C@@H]2C(=O)N(C)CC(=O)N2C1` here?
A: The logP was 0.792.

Q: Which logP does the source give for `CCCCN1C(=O)[C@H]2CNC(c3cc(S(=O)(=O)N4CCN(CC)CC4)ccc3OCC)=NN2C1=O` here?
A: The logP was 1.25.

Q: With `CCOc1ccc(S(=O)(=O)N2CCN(C)CC2)cc1C1=CC[C@@H]2C(=O)N(C)CC(=O)N2C1` as the compound, how does the logP read?
A: The logP was 0.416.

Q: With `CCCCN1C(=O)C2=C(N=C(c3cc(S(=O)(=O)N4CCN(C)CC4)ccc3OCC)NC2)C1=O` as the compound, how does the logP read?
A: Its logP is 0.984.

Q: Which logP does the source give for `CCCc1nn(C)c2c(=O)[nH]c(-c3cc(S(=O)(=O)N4CCN(C)CC4)ccc3OCC)nc12` here?
A: Its logP is 2.51.

Q: Which logP does the source give for `CCCCN1C(=O)[C@H]2CC=C(c3cc(S(=O)(=O)N4CCN(C)CC4)ccc3OCC)CN2C1=O` here?
A: Its logP is 2.4.

Biological target: not listed separately
Assay: Inhibition of PDE5

Q: For `CCCc1nn(C)c2c(=O)[nH]c(-c3cc(S(=O)(=O)N4CCNCC4)ccc3OCC)nc12`, which pIC50 is on record?
A: Its pIC50 is 8.24.

Q: With `CCCc1nn(C)c2c(=O)[nH]c(-c3ccccc3OCC3CC3)nc12` as the compound, how does the pIC50 read?
A: Its pIC50 is 6.02.

Q: Which pIC50 does the source give for `CCCc1nn(C)c2c(=O)[nH]c(-c3ccccc3[N+](=O)[O-])nc12` here?
A: The pIC50 was 5.36.
